From publication PMC12087695, “A Phenotyping Tool for Seven Cytochrome P450 Enzymes and Two Transporters: Application to Examine the Effects of Clopidogrel and Gemfibrozil” (Clinical Pharmacology and Therapeutics, 2025)

Tests used:
[1] = Plasma pharmacokinetics of cocktail index drugs and their metabolites, five-phase crossover trial; details: for AUC(0-t) / AUC(0-inf) / Cmax / half-life / Tmax: human, plasma, oral; for AUC(0-t) / AUC(0-inf) / Cmax: geometric mean (geometric CV); for AUC(0-inf): AUC0-∞; for half-life: t1/2, geometric mean (geometric CV); for Tmax: median (range);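 on all read-outs here: parameters derived from plasma drug levels quantified by LC–MS with internal standards after acetonitrile protein precipitation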
Procedure: (§1) This open‐label cross‐over clinical trial included five study phases that each participant underwent in a randomized order (Table 1 ). There was at least 2‐week washout period between different study days.
(§2) On study days, venous blood samples from all participants were drawn from forearm vein cannulas before the administration of the pretreatment drugs and 5 minutes before and 0.5, 1, 1.5, 2, 3, 4, 6, 8, 12, and 23 hours after the administration of the index drugs for determination of index drug and metabolite concentrations. […] Standardized breakfast was served 1 hour, lunch 3 hours, and snacks 7 and 9 hours after the administration of index drugs.
(§3) Prior to the analysis, the analytes were extracted from the plasma samples with simple protein precipitation. Plasma samples (50 μL) were mixed with acetonitrile solution (200 μL) containing internal standards. The samples were centrifugated and an aliquot of the supernatant was mixed with an equal volume of water before LC–MS analyses.
(§4) The flow rate was 0.3 mL/min, and the gradient program for the mobile phase B was from 20% to 90% over 7 minutes, wash at 90% 7–9.5 minutes, followed by balancing at 20% before next injection. […] The column and mobile phases were the same as above, and the gradient program for the mobile phase B was from 40% to 90% over 5 minutes, wash at 90% 5–7.3 minutes, followed by balancing at 40% before next injection. The quality control samples for each analyte at relevant concentrations were quantified with each batch of plasma samples.
(§5) Individuals with poor metabolism or transport function phenotype were excluded from respective statistical comparisons.

clinical = details: human; for AUC(0-inf): AUC0-∞; for Tmax: median (range); for half-life: t1/2, geometric mean (geometric CV)
Procedure: as §1, §2, §3, §4, §5

[2] = phase IV: clopidogrel 300 mg pretreatment + full cocktail
[3] = phase V: gemfibrozil 600 mg b.i.d. 3 days pretreatment + full cocktail
[4] = in vivo, AUC0-23h, geometric mean (geometric CV), phase II: Geneva cocktail
[5] = in vivo, geometric mean (geometric CV), phase II: Geneva cocktail
[6] = in vivo, phase II: Geneva cocktail
[7] = AUC0-12h, phase II: Geneva cocktail
[8] = in vivo, AUC0-23h, geometric mean (geometric CV), phase IV: clopidogrel 300 mg pretreatment + full cocktail
[9] = in vivo, AUC0-23h, geometric mean (geometric CV), phase V: gemfibrozil 600 mg b.i.d. 3 days pretreatment + full cocktail
[10] = in vivo, geometric mean (geometric CV), phase IV: clopidogrel 300 mg pretreatment + full cocktail
[11] = in vivo, geometric mean (geometric CV), phase V: gemfibrozil 600 mg b.i.d. 3 days pretreatment + full cocktail
[12] = in vivo, phase V: gemfibrozil 600 mg b.i.d. 3 days pretreatment + full cocktail
[13] = in vivo, phase IV: clopidogrel 300 mg pretreatment + full cocktail

OCc1ncc2n1-c1ccc(Cl)cc1C(c1ccccc1F)=NC2 [1’-OH-midazolam, 1′‐hydroxymidazolam]
AUC0-23h, geometric mean (geometric CV) ([1]; phase II: Geneva cocktail): 3.54 (37.4%) ng×h/mL
AUC0-∞, geometric mean (geometric CV) ([1]; phase II: Geneva cocktail): 3.75 (35.9%) ng×h/mL
Cmax, geometric mean (geometric CV) ([1]; phase II: Geneva cocktail): 1.48 (40.9%) ng/mL
Tmax, median (range) ([1]; phase II: Geneva cocktail): 1.0 (0.5-1.0) h
t1/2, geometric mean (geometric CV) ([1]; phase II: Geneva cocktail): 1.53 (35.6%) h
AUC0-23h, geometric mean (geometric CV) [1, 2]: 5.03 (42.0%) ng×h/mL
AUC0-∞, geometric mean (geometric CV) [1, 2]: 5.15 (39.8%) ng×h/mL
Cmax, geometric mean (geometric CV) [1, 2]: 2.14 (42.5%) ng/mL
Tmax, median (range) [1, 2]: 1.0 (0.5-1.0) h
t1/2, geometric mean (geometric CV) [1, 2]: 1.46 (26.6%) h
AUC0-23h, geometric mean (geometric CV) [1, 3]: 7.33 (41.1%) ng×h/mL
AUC0-∞, geometric mean (geometric CV) [1, 3]: 7.65 (36.6%) ng×h/mL
Cmax, geometric mean (geometric CV) [1, 3]: 2.83 (38.7%) ng/mL
Tmax, median (range) [1, 3]: 1.0 (0.5-1.5) h
t1/2, geometric mean (geometric CV) [1, 3]: 1.85 (28.8%) h

CC(C(=O)O)c1ccc(-c2ccc(O)cc2)c(F)c1 (stereo not shown) [4’-OH-flurbiprofen, 4′‐hydroxyflurbiprofen]
AUC(0-t) (clinical; [4]): 224 ng·h/mL
AUC(0-inf) (clinical; [5]): 263 ng·h/mL
Cmax (clinical; [5]): 46.4 ng/mL
Tmax (clinical; [6]): 1.8 h
half-life (clinical; [6]): 3.44 h

COc1ccc2nc([S+]([O-])Cc3ncc(CO)c(OC)c3C)[nH]c2c1 (stereo not shown) [5’-OH-omeprazole, 5′‐hydroxyomeprazole]
AUC0-23h, geometric mean (geometric CV) ([1]; phase II: Geneva cocktail): 194 (35.7%) ng×h/mL
AUC0-∞, geometric mean (geometric CV) ([1]; phase II: Geneva cocktail): 193 (36.1%) ng×h/mL
Cmax, geometric mean (geometric CV) ([1]; phase II: Geneva cocktail): 99.8 (87.9%) ng/mL
Tmax, median (range) ([1]; phase II: Geneva cocktail): 1.5 (1.0-2.0) h
t1/2, geometric mean (geometric CV) ([1]; phase II: Geneva cocktail): 1.17 (36.9%) h
AUC0-23h, geometric mean (geometric CV) [1, 2]: 213 (14.6%) ng×h/mL
AUC0-∞, geometric mean (geometric CV) [1, 2]: 212 (14.5%) ng×h/mL
Cmax, geometric mean (geometric CV) [1, 2]: 115 (23.8%) ng/mL
Tmax, median (range) [1, 2]: 1.5 (1.0-3.0) h
t1/2, geometric mean (geometric CV) [1, 2]: 1.04 (15.5%) h
AUC0-23h, geometric mean (geometric CV) [1, 3]: 253 (37.6%) ng×h/mL
AUC0-∞, geometric mean (geometric CV) [1, 3]: 253 (36.9%) ng×h/mL
Cmax, geometric mean (geometric CV) [1, 3]: 104 (76.9%) ng/mL
Tmax, median (range) [1, 3]: 1.5 (1.0-4.0) h
t1/2, geometric mean (geometric CV) [1, 3]: 1.34 (32.6%) h

CC(NC(C)(C)C)C(=O)c1cccc(Cl)c1 (stereo not shown) [Bupropion, bupropion]
AUC(0-t) (clinical; [4]): 76.5 ng·h/mL
AUC(0-inf) (clinical; [5]): 84.7 ng·h/mL
Cmax (clinical; [5]): 20 ng/mL
half-life (clinical; [6]): 7.89 h

Cn1c(=O)c2c(ncn2C)n(C)c1=O [Caffeine, caffeine]
AUC(0-t) (clinical; plasma, oral): 6270 ng·h/mL
Prolongation of t1/2 ([1]; gemfibrozil pretreatment vs control): 21%
AUC(0-t) [1, 7]: 6250 ng·h/mL
AUC(0-inf) ([1]; phase II: Geneva cocktail): 7830 ng·h/mL
Cmax ([1]; phase II: Geneva cocktail): 1130 ng/mL
half-life ([1]; phase II: Geneva cocktail): 4.65 h

COc1ccc2c(c1)[C@]13CCCC[C@@H]1[C@H](C2)N(C)CC3 [Dextromethorphan, dextromethorphan]
AUC(0-t) (clinical; [4]): 4.9 ng·h/mL
AUC(0-t) (clinical; [8]): 6.01 ng·h/mL
AUC(0-t) (clinical; [9]): 6.07 ng·h/mL
AUC(0-inf) (clinical; [5]): 5.58 ng·h/mL
AUC(0-inf) (clinical; [10]): 6.68 ng·h/mL
AUC(0-inf) (clinical; [11]): 6.82 ng·h/mL
Cmax (clinical; [5]): 0.745 ng/mL
Cmax (clinical; [10]): 0.858 ng/mL
Cmax (clinical; [11]): 0.898 ng/mL
Tmax (clinical; [12]): 2.5 h
half-life (clinical; [6]): 4.24 h
half-life (clinical; [13]): 4.61 h
half-life (clinical; [12]): 4.38 h
Tmax, median (range) ([1]; phase II: Geneva cocktail): 2.0 (2.0-4.0) h
Tmax, median (range) [1, 2]: 2.0 (2.0-3.0) h

CN1CC[C@@]23CCCC[C@@H]2[C@@H]1Cc1ccc(O)cc13 [Dextrorphan, dextrorphan]
AUC(0-t) (clinical; [4]): 8.07 ng·h/mL
AUC(0-t) (clinical; [8]): 9.66 ng·h/mL
AUC(0-t) (clinical; [9]): 17.8 ng·h/mL
AUC(0-inf) (clinical; [5]): 8.35 ng·h/mL
AUC(0-inf) (clinical; [10]): 10 ng·h/mL
AUC(0-inf) (clinical; [11]): 17.8 ng·h/mL
Cmax (clinical; [5]): 1.82 ng/mL
Cmax (clinical; [10]): 2.05 ng/mL
Cmax (clinical; [11]): 3.63 ng/mL
Tmax (clinical; [6]): 2 h
Tmax (clinical; [13]): 2 h
Tmax (clinical; [12]): 2 h
half-life (clinical; [6]): 2.5 h
half-life (clinical; [13]): 2.68 h
half-life (clinical; [12]): 2.77 h

CC(C(=O)O)c1ccc(-c2ccccc2)c(F)c1 (stereo not shown) [Flurbiprofen, flurbiprofen]
AUC(0-t) (clinical; [4]): 5550 ng·h/mL
AUC(0-t) (clinical; [8]): 5720 ng·h/mL
AUC(0-t) (clinical; [9]): 5770 ng·h/mL
AUC(0-inf) (clinical; [5]): 5910 ng·h/mL
AUC(0-inf) (clinical; [10]): 5940 ng·h/mL
AUC(0-inf) (clinical; [11]): 6080 ng·h/mL
Cmax (clinical; [5]): 1090 ng/mL
Cmax (clinical; [10]): 1180 ng/mL
Cmax (clinical; [11]): 1110 ng/mL
Tmax (clinical; [13]): 1.5 h
Tmax (clinical; [12]): 1.5 h
half-life (clinical; [6]): 4.82 h
half-life (clinical; [13]): 4.35 h
half-life (clinical; [12]): 4.61 h

C[C@H]1NC(C)(C)CO[C@]1(O)c1cccc(Cl)c1 [OH-bupropion, hydroxybupropion]
AUC0-23h, geometric mean (geometric CV) ([1]; phase II: Geneva cocktail): 571 (35.3%) ng×h/mL
AUC0-∞, geometric mean (geometric CV) ([1]; phase II: Geneva cocktail): 1200 (44.1%) ng×h/mL
Cmax, geometric mean (geometric CV) ([1]; phase II: Geneva cocktail): 36.9 (38.6%) ng/mL
Tmax, median (range) ([1]; phase II: Geneva cocktail): 3.0 (2.0-4.0) h
t1/2, geometric mean (geometric CV) ([1]; phase II: Geneva cocktail): 26.1 (40.1%) h
AUC0-23h, geometric mean (geometric CV) [1, 2]: 181 (37.6%) ng×h/mL
AUC0-∞, geometric mean (geometric CV) [1, 2]: 499 (45.3%) ng×h/mL
Cmax, geometric mean (geometric CV) [1, 2]: 10.3 (39.9%) ng/mL
Tmax, median (range) [1, 2]: 4.0 (1.5-12.0) h
t1/2, geometric mean (geometric CV) [1, 2]: 34.6 (42.9%) h
AUC0-23h, geometric mean (geometric CV) [1, 3]: 585 (43.5%) ng×h/mL
AUC0-∞, geometric mean (geometric CV) [1, 3]: 1380 (41.2%) ng×h/mL
Cmax, geometric mean (geometric CV) [1, 3]: 34.1 (44.6%) ng/mL
Tmax, median (range) [1, 3]: 6.0 (1.0-12.0) h
t1/2, geometric mean (geometric CV) [1, 3]: 29.4 (51.7%) h

COc1ccc2nc(S(=O)(=O)Cc3ncc(C)c(OC)c3C)[nH]c2c1 [Omeprazole sulfone, omeprazole sulfone]
AUC(0-t) ([1]; AUC0-23h, phase II: Geneva cocktail): 113 ng·h/mL
AUC(0-t) ([1]; AUC0-23h, phase IV: clopidogrel 300 mg pretreatment + full cocktail): 156 ng·h/mL
AUC(0-t) ([1]; AUC0-23h, phase V: gemfibrozil 600 mg b.i.d. 3 days pretreatment + full cocktail): 124 ng·h/mL
AUC(0-inf) ([1]; phase II: Geneva cocktail): 111 ng·h/mL
AUC(0-inf) [1, 2]: 154 ng·h/mL
AUC(0-inf) [1, 3]: 122 ng·h/mL
Cmax ([1]; phase II: Geneva cocktail): 35.3 ng/mL
Cmax [1, 2]: 51.2 ng/mL
Cmax [1, 3]: 41.8 ng/mL
Tmax ([1]; phase II: Geneva cocktail): 1.5 h
Tmax [1, 2]: 1.5 h
Tmax [1, 3]: 1.5 h
half-life ([1]; phase II: Geneva cocktail): 1.9 h
half-life [1, 2]: 1.88 h
half-life [1, 3]: 1.64 h

Cn1c(=O)[nH]c2ncn(C)c2c1=O [Paraxanthine, paraxanthine]
AUC(0-t) [1, 7]: 3370 ng·h/mL
AUC(0-t) ([1]; AUC0-12h, phase IV: clopidogrel 300 mg pretreatment + full cocktail): 3940 ng·h/mL
AUC(0-t) ([1]; AUC0-12h, phase V: gemfibrozil 600 mg b.i.d. 3 days pretreatment + full cocktail): 3360 ng·h/mL
AUC(0-inf) ([1]; phase II: Geneva cocktail): 7220 ng·h/mL
AUC(0-inf) [1, 2]: 8930 ng·h/mL
AUC(0-inf) [1, 3]: 9160 ng·h/mL
Cmax ([1]; phase II: Geneva cocktail): 374 ng/mL
Cmax [1, 2]: 436 ng/mL
Cmax [1, 3]: 358 ng/mL
Tmax ([1]; phase II: Geneva cocktail): 4 h
Tmax [1, 2]: 3 h
half-life ([1]; phase II: Geneva cocktail): 11 h
half-life [1, 2]: 12.8 h
half-life [1, 3]: 15.9 h
